# Data from paper PMC6958375 (Pharmaceuticals, 2019).
# Entries after “also recorded” stand apart in the source; their conditions may differ. Like-named read-outs stand apart in the source and are kept apart here.
# What was measured:
# MDA-MB-231 cells [1] = assay: Pro-oxidant effect by cell counting with NAC, MDA-MB-231
# Procedure: (§1) Pro-oxidant effects were examined by cell counting, adding N-acetyl-L-cysteine (NAC), an antioxidant molecule, 1h before compounds. Results were expressed as mean ± standard error (SE) of at least three different experiments performed in duplicate. All the chemicals were supplied by Sigma Aldrich Srl, Milan, Italy.
# NF-κB (p65 subunit) [2] = assay: NF-κB DNA-binding activity (TransAM), MDA-MB-231 nuclear extracts; assay type: cell-based, human; details: MDA-MB-231, compounds at IC50 values, 8 h of treatment
# Text: (§2) The DNA-binding capacity of NF-κB (p65 subunit) was defined in the nuclear extracts of SUM 149 and MDA-MB-231 cells using the TransAM NF-κB and Nuclear Extract kits (Active Motif, Carlsbad, CA, USA). The determination of binding capacity was based on a 96-well plate, on which an oligonucleotide containing the NF-κB consensus binding site was fixed. […] After addition of a horseradish peroxidase-conjugated secondary antibody, a sensitive colorimetric readout was quantified by densitometry (iMark Microplate Reader; Bio-Rad Laboratories, Inc.). The control of specificity of the assay carried out according to the indications of manufacturer’s protocol. The results were expressed as arbitrary units: one unit indicated the DNA binding capacity exerted by 2.5 μg whole cell extract from Jurkat cells/microgram of protein from the nuclear extracts. Jurkat cells, stimulated with 12-O-tetradecanoylphorbol-13-acetate and calcium ionophore, are the positive control for NF-κB p65 activation.
# NF-κB (p65 subunit) [3] = assay: NF-κB DNA-binding activity (TransAM), SUM 149 nuclear extracts; assay type: cell-based, human; details: SUM 149, compounds at IC50 values, 24 h of treatment
# Text: as §2
# SUM 149 cells [4] = assay: Pro-oxidant effect by cell counting with NAC, SUM 149; details: for Cell Viability (%): SUM 149, cell counting, mean ± SE
# Procedure: as §1
# SUM 149 cells [5] = assay: Cell growth assay (MTS), SUM 149; assay type: cell-based, human; details: 72 h of treatment, mean ± SE
# Procedure: (§3) Dr. Elda Tagliabue (Molecular Targeting Unit, Department of Experimental Oncology and Molecular Medicine, Fondazione Institute of Hospitalization and Scientific Care, National Cancer Institute, Milan, Italy) kindly provided us the human breast cancer cell lines: MDA-MB-231(ATCC: HTB-26—Rockville, MD, USA) and SUM 149 (SUM149PT—Asterand Bioscience Detroit, MI). The first was cultured in RPMI-1640 and the second was cultured in DMEM/F-12 supplemented with insulin (5 μg/mL). The cells were authenticated using the short tandem repeat profiling method in their Institute. Prof. Giulio Ghersi (STEBICEF Department, University of Palermo, Italy) kindly provided us the non-tumorigenic cell line 1-7HB2 (ECACC 10081201—Cancer Research Technology, London, UK) that was cultured in DMEM low glucose supplemented with hydrocortisone (5 μg/mL) and insulin (10 μg/mL). HL60, obtained from ATCC® (CCL-240, Rockville, MD, USA), and its variant HL60R, obtained by exposure to gradually increasing concentrations of doxorubicin, were cultured in RPMI-1640. All media were supplemented with 10% heat-inactivated fetal calf serum, 2 mM L-glutamine, 100 U/mL penicillin and 100 μg/mL streptomycin (all reagents were from EuroClone S.p.A., Milan, Italy; GE Healthcare Life Sciences, Logan, UT, USA). All cell lines were cultured in a humidified atmosphere at 37 °C in 5% CO2.
# (§4) The cells were seeded at 2 × 10^4 cells/well onto 96-well plates and incubated at 37 °C overnight; at time 0, the medium was replaced with fresh complete medium supplemented of compounds at the indicated concentrations. Following 72 h of treatment, 16 μL of a commercial solution obtained from Promega Corporation (Madison, WI, USA) containing 3-(4,5-dimethylthiazol- 2-yl)-5-(3-carboxy methoxyphenyl)-2-(4-sulphophenyl)-2H-tetrazolium (MTS) and phenazine ethosulfate were added. After a incubation in a humidified atmosphere at 37 °C in 5% CO2, the bioreduction of MTS dye was evaluated by measuring the absorbance of each well at 490 nm, using a microplate absorbance reader (iMark Microplate Reader; Bio-Rad Laboratories, Inc., Hercules, CA, USA). Cell growth inhibition was expressed as a percentage (mean ± SE) of the absorbance of the control cells.
# HL60 cells = assay: Cell growth assay, HL60; assay type: cell-based
# Procedure: as §3, §4
# MDA-MB-231 cells [6] = assay: Cell growth assay (MTS), MDA-MB-231; assay type: cell-based, human; details: 72 h of treatment, mean ± SE
# Procedure: as §3, §4
# [7] = DPPH free radical scavenging assay; assay type: biochemical; details: DPPH reduction, 1 h in the dark at room temperature, absorbance 517 nm
# Procedure: The antioxidant activity was evaluated by the DPPH stable radical method. Trolox (6-hydroxy-2,5,7,8-tetramethyl-chroman-2-carboxylic acid) curve was used as the positive control. 100 μL of sample was added to aliquots of a solution made up with DPPH (4.8 mg) in MeOH (200 mL), and the mixture was incubated in the dark, for 1 h at room temperature. The absorbance was measured using a UV-VIS spectrophotometer, at 517 nm. The results were plotted as the percentage of absorbance disappearance at 517 nm [(1-A/A0) × 100] against the amount of sample divided by the initial concentration of DPPH; lower absorbance values of reaction mixture indicate higher free radical scavenging activity. ED50 corresponds to micrograms of fraction able to consume half the amount of free radical divided by micromoles of initial DPPH. The results were expressed as antiradical capacity (ARC), which is the inverse of ED50. Each point was acquired in triplicate.
# 1-7HB2 cells = assay: Cell growth assay (MTS), normal cell line 1-7HB2; assay type: cell-based; details: cell growth inhibition, 72 h of treatment, mean ± SE
# Procedure: as §3, §4
# Bcl-2 = assay: Western blot of Bcl-2 in SUM 149 cells; assay type: cell-based, human; details: SUM 149, 24 h, compound at IC50
# Text: (§5) In order to verify if the three analogues alter the expression of some targets of NF-κB, like curcumin, western blot analysis was used. […] In line with the results of NF-κB DNA-binding activity inhibition, only Compounds 1 and 3 caused a decrease of expression of some targets in the same cell lines. In particular, in SUM 149 cells only Compound 3 caused a decreased expression of Survivin (a 55% of reduction respect to control) and Bcl-2 (a 48% of reduction respect to control), while in MDA-MB-231 cells only Compound 1 caused a reduction of IAP1 expression (a 32% of reduction with respect to the control) (Figure 8 and Figure 9).
# (§6) Whole-cell lysates were obtained from breast cancer cells using RIPA buffer (Santa Cruz Biotechnology Inc., Dallas, TX, USA) and 25 μg protein was subjected to 10% SDS-PAGE and transferred to Hybond-P membranes (GE Healthcare Europe GmbH, Freiburg, Germany). Filters were incubated with primary antibodies raised against β-actin (Sigma-Aldrich Srl, Milan, Italy), Bcl-2 (Santa Cruz Biotechnology Inc., Dallas, TX, USA), XIAP (Cell Signaling Technology, Danvers, MA), Survivin (Novus Biologicals, Littleton, CO), IAP1 (Cell Signaling Technology, Danvers, MA). […]
# (§7) Immunoblots were quantified by densitometry, the data were expressed as arbitrary units (protein/β-actin).
# HL60R cells = assay: Cell growth assay, multidrug resistant HL60R; assay type: cell-based; details: read-out: HL60 R IC50
# Procedure: as §3, §4
# Survivin = assay: Western blot of Survivin in SUM 149 cells; assay type: cell-based, human; details: SUM 149, 24 h, compound at IC50
# Text: as §5, §6, §7
# IAP1 = assay: Western blot of IAP1 in MDA-MB-231 cells; assay type: cell-based, human; details: MDA-MB-231, 8 h, compound at IC50
# Text: as §5, §6, §7
# [8] = cell growth inhibition, read-out: SUM149 IC50 (converted)
# [9] = acute promyelocytic leukemia HL60, cell growth assay, read-out: HL60 IC50
# [10] = multidrug resistant variant of HL60, cell growth assay
compound,measurement,setting,value
"4-phenylsulfanyl-(1E,6E)-1,7-bis(4-hydroxy-3-methoxyphenyl)hepta-1,6-diene-3,5-dione [Compound 3]",Cell Viability (%),"MDA-MB-231 cells [1]; MDA-MB-231, cell counting, compound alone at its IC50 (curc 25 μM, 1 18 μM, 2 20 μM, 3 15 μM), mean ± SE",25.6 ± 0.7%
same,NF-κB DNA-binding activity,NF-κB (p65 subunit) [2],NF-κB inhibitors
same,NF-κB DNA-binding activity,NF-κB (p65 subunit) [3],stronger decrease than curcumin
same,Cell Viability (%),SUM 149 cells [4]; NAC 2 mM 1 h before compound at its IC50,14.0 ± 4.6%
same,Cell Viability (%),"SUM 149 cells [4]; compound alone at its IC50 (curc 14 μM, 1 11 μM, 2 13 μM, 3 14 μM)",34.0 ± 2.1%
same,IC50,SUM 149 cells [5]; [8],13.5 ± 0.88 µM
same,IC50,HL60 cells; [9],< 1 µM
same,IC50,MDA-MB-231 cells [6]; cell growth inhibition,15 ± 0.85 µM
same,ED50,[7],19.2 µM
same,IC50,1-7HB2 cells,12.5 ± 0.43 µM
same,reduction of Bcl-2 expression respect to control,Bcl-2,48%
same,IC50,HL60R cells; [10],6.7 µM
same,reduction of Survivin expression respect to control,Survivin,55%
"C#CCOc1ccc(/C=C/C(=O)CC(=O)/C=C/c2ccc(OCC#C)c(OC)c2)cc1OC [Compound 2, (1E,6E)-1,7-bis(3-methoxy-4-propargyloxyphenyl)hepta-1,6-diene-3,5-dione]",IC50,SUM 149 cells [5]; [8],13.2 ± 1.59 µM
same,IC50,HL60 cells; [9],17 µM
same,IC50,MDA-MB-231 cells [6]; cell growth inhibition,20 µM
same,1-7HB2 IC50,1-7HB2 cells,not reached
same,IC50,HL60R cells; [10],9 µM
"COc1cc(/C=C/C(O)=C/C(=O)/C=C/c2ccc(OCc3ccc(CBr)cc3)c(OC)c2)ccc1O [Compound 4, (1E,6E)-1-(4-hydroxy-3-methoxyphenyl)-7-[3-methoxy-4(4-methylbromobenzyl)oxyphenyl] hepta-1,6-diene-3,5-dione]",SUM149 IC50,SUM 149 cells [5]; cell growth inhibition,not reached
same,MDA-MB-231 IC50,MDA-MB-231 cells [6]; cell growth inhibition,not reached
same,1-7HB2 IC50,1-7HB2 cells,not reached
"COc1cc(/C=C/C(=O)/C=C(O)/C=C/c2ccc(OCc3ccc(CBr)cc3)c(OC)c2)ccc1OCc1ccc(CBr)cc1 [Compound 5, (1E,6E)-1,7-bis [3-methoxy-4(4-methylbromobenzyl)oxyphenyl]hepta-1,6-diene-3,5-dione]",SUM149 IC50,SUM 149 cells [5]; cell growth inhibition,not reached
same,MDA-MB-231 IC50,MDA-MB-231 cells [6]; cell growth inhibition,not reached
same,1-7HB2 IC50,1-7HB2 cells,not reached
"COc1cc(/C=C/C(=O)CC(=O)/C=C/c2ccc(O)c(OC)c2)ccc1O [Curcumin, reference compound]",IC50,"SUM 149 cells [5]; Homo sapiens, SUM149, cell growth inhibition",14 ± 0.29 µM
same,IC50,"HL60 cells; Homo sapiens, HL-60, read-out: HL60 IC50",47.5 µM
same,IC50,"MDA-MB-231 cells [6]; Homo sapiens, MDA-MB-231, cell growth inhibition",25.5 ± 0.35 µM
same,IC50,1-7HB2 cells,37.5 ± 0.51 µM
same,IC50,HL60R cells; HL60R,40.5 µM
"CC(=O)N[C@@H](CS)C(=O)O [NAC, N-acetyl-L-cysteine]",viability at 2000 µM,"MDA-MB-231 cells [1]; Homo sapiens, MDA-MB-231, read-out: Cell Viability (%)",87 ± 3.9%
same,viability at 2000 µM,"SUM 149 cells [4]; Homo sapiens, SUM149, read-out: Cell Viability (%)",100 ± 9.5%
"Cc1c(C)c2c(c(C)c1O)CCC(C)(C(=O)O)O2 (stereo not drawn) [Trolox, 6-hydroxy-2,5,7,8-tetramethyl-chroman-2-carboxylic acid, reference compound]",ED50,[7],12.0 µM
"(1E,6E)-1-(4-hydroxy-3-methoxyphenyl)-7-(3-methoxy-4-propargyloxyphenyl)hepta-1,6-diene -3,5-dione [Compound 1]",NF-κB DNA-binding activity,NF-κB (p65 subunit) [2],NF-κB inhibitors; also recorded: greater effect than curcumin
same,IC50,SUM 149 cells [5]; [8],11.2 µM
same,IC50,HL60 cells; [9],14 µM
same,IC50,MDA-MB-231 cells [6]; cell growth inhibition,18 µM
same,IC50,1-7HB2 cells,20 µM
same,IC50,HL60R cells; [10],7 µM
same,reduction of IAP1 expression with respect to the control,IAP1,32%
